Test results as given in patent publication US20190136292A1, “Universal Calibration Method for Assaying Enzymatic Inhibitors” (Diagnostica Stago, priority 2016, published 2019).
Values joined by “and” are separate entries in the source; they are usually repeats but may differ in a detail not shown here. Equal entries are not always repeated. Where two headings read alike, the source gives them in different places.

Target: F.Xa (factor Xa of bovine origin) (Bos taurus, UniProt P00743)
Conditions: for conversion chart constant e (equation 2, anti-Xa activity % to ng/ml) / conversion chart constant i (equation 2, anti-Xa activity % to ng/ml): non-linear regression of equation 2
Text: The reagents from the commercial kit STA®—Liquid Anti-Xa (Diagnostica Stago, Asniéres sur Seine, France), F.Xa (factor Xa of bovine origin) and substrate (MAPA-Gly-Arg-pNA) were used. These commercial reagents and also the pool of normal human plasma Pool Norm (Diagnostica Stago, Asnieres sur Seine, France), the Owren Koller buffer (OKB) (pH 7.35, STA®—Owren-Koller, Diagnostica Stago, Asnieres sur Seine, France) and the desorption solution (DU) STA®—Desorb U (Diagnostica Stago, Asnieres sur Seine, France) were regenerated at room temperature for 30 minutes, as recommended by the manufacturer.
The kinetics were monitored by colorimetry at 405 nm, detecting the release of para-nitroanilide (pNA). The optical density (OD) was measured every two seconds. Two methodologies were optimized for assaying the three direct oral anti-Xa anticoagulants: the broad-range methodology and the narrow-range methodology. This is because the broad-range methodology makes it possible to assay the anticoagulants over the whole of the desired range; however, since the measurement of low concentrations of these anticoagulants requires great precision a narrow-range methodology was therefore developed.
In broad range, 6.25 μl of biological sample (plasma) were diluted with OKB in a final volume of 50 μl. The microcuvette was incubated for 240 seconds at 37° C. in the presence of 150 μl of substrate. The reaction was started by the addition of 150 μl of F.Xa, incubated beforehand at 37° C. In narrow range, 25 μl of sample were diluted with 25 μl of OKB. The experimental conditions for addition of substrate and enzyme are the same as for the broad-range methodology. The gradients were determined between 50 and 80 seconds.
The calibration was carried out from a range of F.Xa composed of 10 points ranging from 10% to 100% F.Xa, corresponding to an anti-Xa activity ranging from 90% to 0%. The range was created from reagents from the kit STA® Liquid Anti-Xa. The F.Xa (2 ml, 1.8 ml, . . . , 0.2 ml) was diluted in OKB (0 ml, 0.2 ml . . . 1.8 ml) for a final volume of 2 ml. The pool of healthy plasmas dated 04/2014 was used for this experiment. 5% DMSO was diluted to 1/20th in the plasma. The results (measurements of the OD/min between 50 and 80 seconds) were determined in two replicates.
The gradients of the kinetics measured for the 10 calibration points make it possible to plot the graph of anti-Xa activity (%) as a function of the OD/min. The equation of the line obtained is used to convert the OD/min of the samples tested into anti-Xa activity as percentage. The equation of the line is given by a polynomial regression of first order or of second order.
The parameters of the chart, specific to each direct oral anticoagulant (DOA), were determined for both of the methodologies (broad-range methodology and narrow-range methodology) by a non-linear regression of equation 2 on a few experimental points. […] The OD/min was measured for each sample between 50 and 80 seconds.
The limit of blank (LoB) was determined according to a standard procedure. The five different plasmas used were those dated January 2011, March 2012, April 2014, November 2014 and February 2015. Four replicates were carried out each day for three days, on the same automated device. The tests were carried out for the broad-range and narrow-range methodologies.
The limit of detection (LoD) was determined according to a standard procedure. Low-analyte plasmas were prepared. The overloads were carried out to 1/20th. The plasma dated 04/2014 was used. […] In narrow range, the concentrations of the overloads were 5 ng/ml for the three anticoagulants. Five overloads were produced for a final volume of 900 μl. When the regression of the universal calibration was a second-order polynomial, the concentrations of analytes in broad range and in narrow range were 2 ng/ml for the three direct oral anticoagulants (DOAs). The final volume of the overloads was 1000 μl. Each overload was separated into three tubes.

[1] = broad-range methodology, plasma sample diluted 1/8 in OKB, linear universal calibration
[2] = narrow-range methodology, plasma sample diluted 1/2 in OKB, linear universal calibration
[3] = optimization in narrow-range methodology, universal calibration regressed by second-order polynomial

Sequence of F.Xa (factor Xa of bovine origin) (P00743 234-492 limits assumed): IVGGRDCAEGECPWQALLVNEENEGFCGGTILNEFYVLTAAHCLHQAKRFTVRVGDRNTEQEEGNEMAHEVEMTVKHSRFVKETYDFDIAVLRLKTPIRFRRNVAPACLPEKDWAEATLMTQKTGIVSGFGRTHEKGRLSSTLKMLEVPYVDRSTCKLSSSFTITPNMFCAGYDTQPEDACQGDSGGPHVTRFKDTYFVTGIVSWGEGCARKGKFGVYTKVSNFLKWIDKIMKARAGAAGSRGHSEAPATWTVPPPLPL
Sequence of F.Xa (factor Xa of bovine origin) (P00743 41-180 partner limits assumed): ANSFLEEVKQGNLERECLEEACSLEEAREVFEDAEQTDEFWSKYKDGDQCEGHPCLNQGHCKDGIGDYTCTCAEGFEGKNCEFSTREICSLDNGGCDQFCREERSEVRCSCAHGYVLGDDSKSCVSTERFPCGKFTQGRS

COc1ccc(-n2nc(C(N)=O)c3c2C(=O)N(c2ccc(N4CCCCC4=O)cc2)CC3)cc1 [apixaban]
conversion chart constant e (equation 2, anti-Xa activity % to ng/ml) (broad-range methodology): 14.66
conversion chart constant i (equation 2, anti-Xa activity % to ng/ml) (broad-range methodology): 1.35
LoB (limit of blank) [1]: 16.613 ng/mL
LoD (limit of detection) [1]: 21.8 ng/mL and 21.723 ng/mL
conversion chart constant e (equation 2, anti-Xa activity % to ng/ml) (narrow-range methodology): 13.23
conversion chart constant i (equation 2, anti-Xa activity % to ng/ml) (narrow-range methodology): 2.91
LoB (limit of blank) [2]: 5.450 ng/mL
LoD (limit of detection) [2]: 6.9 ng/mL and 6.882 ng/mL
LoB (limit of blank) [3]: 2.759 ng/mL
LoD (limit of detection) [3]: 4.001 ng/mL
